We go through seven compounds from patent US11008336B2, “Compounds useful for inhibiting RORγt” (Eli Lilly and Company, priority 2017, dated 2021).

Assay [1] has as its target human RORg ligand binding domain fused to yeast GAL4 DNA binding domain (Homo sapiens (Human), UniProt P51449). In words: HEK293 RORg GAL4 receptor-reporter assay. The settings on record: HEK293 cells, RORg-GAL4/pGL4.31 luciferase, 18 hours; mean ± standard deviation; read-out: hIC50. The format is cell-based. For orientation: In a reporter assay the amount or activity of a reporter protein is the signal.

For assay [2], the target named is human RAR-related orphan receptor gamma (hRORγ) (Homo sapiens (Human), UniProt P51449). Description: RORγ receptor-ligand competition binding assay. The settings on record: His-tagged hRORγ, [3H]-25-hydroxycholesterol; mean ± standard deviation; read-out: RORg Ki. On the procedure: (§1) His-tagged human RAR-related orphan receptor alpha (hRORα), human RAR-related orphan receptor beta (hRORβ), and human RAR-related orphan receptor gamma (hRORγ) are used for receptor-ligand competition binding assays to determine Ki values. Typical procedures are provided below.
Sequence of human RAR-related orphan receptor gamma (hRORγ) (P51449 whole entry): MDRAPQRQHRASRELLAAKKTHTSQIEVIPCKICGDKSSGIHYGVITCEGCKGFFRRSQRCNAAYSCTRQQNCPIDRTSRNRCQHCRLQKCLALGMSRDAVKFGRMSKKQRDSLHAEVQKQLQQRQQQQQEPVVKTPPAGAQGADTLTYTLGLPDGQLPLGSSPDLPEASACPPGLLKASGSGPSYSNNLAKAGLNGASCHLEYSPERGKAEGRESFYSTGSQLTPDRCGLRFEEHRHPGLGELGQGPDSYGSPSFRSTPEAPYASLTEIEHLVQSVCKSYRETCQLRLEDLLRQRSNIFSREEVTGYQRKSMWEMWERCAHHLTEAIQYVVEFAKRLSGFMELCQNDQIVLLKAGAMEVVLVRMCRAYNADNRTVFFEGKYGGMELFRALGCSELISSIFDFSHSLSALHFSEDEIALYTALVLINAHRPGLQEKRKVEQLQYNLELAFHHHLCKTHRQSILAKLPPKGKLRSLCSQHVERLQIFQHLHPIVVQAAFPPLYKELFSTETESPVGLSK
(§2) The final wells contain 20 μg/mL aprotinin and 20 μg/mL leupeptin and 10 μM Pefabloc. Typically, receptor binding assays include radio-labeled ligands, such as 7 nM [^3H]-25-hydroxycholesterol for alpha binding, 20 nM [^3H]-3-[[4-[[3-(2,6-dichlorophenyl)-5-isopropyl-isoxazol-4-yl]methoxy]-N,2-dimethyl-anilino]methyl]benzoic acid for beta binding, and 6 nM [3H]-25-hydroxycholesterol for gamma binding, and 0.5 μg RORα receptor, 0.03 μg RORβ receptor, or 0.13 μg RORγ receptor per well. Assays are typically run in 96-well format. […] Plates are mixed for 30 minutes on an orbital shaker at room temperature. After an incubation of 4 hours, plates are read in a Wallac MICROBETA® counter.
(§3) The data are used to calculate an estimated IC50 using a four parameter logistic fit. The Kd for [^3H]-25-hydroxycholesterol for RORa and RORg, and [^3H]-3-[[4-[[3-(2,6-dichlorophenyl)-5-isopropyl-isoxazol-4-yl]methoxy]-N,2-dimethyl-anilino]methyl]benzoic acid for RORb binding, is determined by saturation binding. The IC50 values for compounds are converted to Ki using the Cheng-Prushoff equation.

Assay [3] deals with anti-CD3/anti-CD28/IL-23 stimulated IL-17 secretion in PBMC's. Description: PBMC IL-17 secretion ELISA. The format is cell-based. The note with it: Homo sapiens, anti-CD3/anti-CD28/IL-23 stimulation, 48 hours, mean ± standard deviation, read-out: hPBMC IL-17 ELISA (EC50). On the procedure:
PBMC's are isolated from whole blood buffy coats by first combining fresh buffy coats with equal volumes of phosphate buffered saline. Thirty five mL of PBS/buffy coat solution are then gently overlaid onto 15 mL of Ficoll in 50 mL conical tubes. Following centrifugation for 30 minutes at 500×g (with slow acceleration and deceleration) the top layer of plasma is discarded and the layer of cells along the Ficoll interface is collected and pooled. Each 250 mL tube is filled to the top with room temperature RPMI-1640 media. Tubes are spun for 10 minutes at 500×G (with slow acceleration and deceleration), the media is removed by aspiration, and the wash step is repeated. Cells are resuspended in ice cold Recovery Cell Culture Freezing Medium from Life Technologies (Catalog number 12648-010) on ice. The cell concentration is adjusted to 66.7 million cells/mL. Cell are slow frozen at −1° C./minute in vials with 100 million cells and stored in liquid nitrogen.
PBMC are brought out of thaw by resuspending with 1 mL of complete media (RPMI-1640 containing 30 mM HEPES, 100 units/mL penicillin, 100 μg/mL streptomycin, 3.25 mM L-Glutamine, 0.2 μM beta-mercaptoethanol, and 10% FBS) followed by the drop wise addition of 2 mL, 4 mL, 8 mL, and 16 mL of complete media with gentle swirling. Cells are spun down for 5 minutes and the cell pellet is resuspended in complete media. Clumps of cells are broken up by running the cell solution through a 23 gauge syringe needle and a […] cell strainer. One hundred thousand cells per well are added to 384 well polystyrene tissue culture treated flat bottomed plates in a total of 30 μL. Stimulation cocktail containing anti-human CD3 antibody, anti-human CD28 antibody, IL-23 and compounds prepared in complete media are added to the cells simultaneously in a total volume of 30 μL. The final concentration of added stimulants is 160 ng/mL, 500 ng/mL, and 5 ng/mL for anti-CD3 antibody, anti-CD28 antibody, and IL-23 respectively and 0.3% for DMSO. Plates are sealed with AERASEAL® sealing film and incubated for 48 hours at 37° C., 95% humidity, and 5% CO2.
Following the incubation period, the plates are spun at 200×g for five minutes. Supernatants are diluted 1:1 with equal volume 1% BSA/PBS and tested for IL-17 with a human IL-17 ELISA kit from R&D system (catalog #D317E) according to the protocol provided with the kit with one exception—the colorimetric substrate OPD (o-phenylenediamine dihydrochloride, Sigma Cat #P6912) is used instead of the substrate supplied in the kit. Absorbance at 492 nm is measured with the Envision multi-label plate reader. A492 values are converted to concentration of IL-17 based on the IL-17 standard curve as shown below: pg/mL IL-17=EC50*[[(Top-Bottom)/(A492-Bottom)]-1](1/-Hill). IC50's for inhibition of IL-17 secretion is calculated based on converted values using a standard 4-parameter fit with maximum inhibition determined from the average values of wells with no added stimulants nor compounds and minimum inhibition from the average values of wells with stimulants alone and no added compound.

The subject of the next assay is PBMC. In words: cells. The note with it: Homo sapiens, 48 h, read-out: Cell TiterGlo Viability (EC50, μM). The format is cell-based. On the procedure: PBMC's are isolated from whole blood buffy coats by first combining fresh buffy coats with equal volumes of phosphate buffered saline. Thirty five mL of PBS/buffy coat solution are then gently overlaid onto 15 mL of Ficoll in 50 mL conical tubes. Following centrifugation for 30 minutes at 500×g (with slow acceleration and deceleration) the top layer of plasma is discarded and the layer of cells along the Ficoll interface is collected and pooled. […] Tubes are spun for 10 minutes at 500×G (with slow acceleration and deceleration), the media is removed by aspiration, and the wash step is repeated.
Cells are spun down for 5 minutes and the cell pellet is resuspended in complete media. Clumps of cells are broken up by running the cell solution through a 23 gauge syringe needle and a 40 μM cell strainer.
Equal volumes of Cell TITERGLO® cell viability testing reagent (Promega Cat #G7573) are added to the cells remaining in the plates, and following a fifteen minute incubation with gentle shaking at room temperature luminescence is measured with the Envision multi-label plate reader. Percent cell death is calculated by setting 100% activity (cell death) to zero luminescence units and minimum activity (max number of viable cells) as the average luminescence units of wells containing stimulants alone and no added compound. IC50's are calculated using a standard four parameter fit.
For orientation: Cellular ATP, detected with luciferase, serves as a proxy for viable cell number.

The target of assay [4] is human RAR-related orphan receptor beta (hRORβ) (Homo sapiens (Human), UniProt Q92753). Description: RORβ receptor-ligand competition binding assay. The settings on record: His-tagged hRORβ; mean ± standard deviation; read-out: RORb Ki. On the procedure: as §1, §2, §3
Sequence of human RAR-related orphan receptor beta (hRORβ) (Q92753 whole entry): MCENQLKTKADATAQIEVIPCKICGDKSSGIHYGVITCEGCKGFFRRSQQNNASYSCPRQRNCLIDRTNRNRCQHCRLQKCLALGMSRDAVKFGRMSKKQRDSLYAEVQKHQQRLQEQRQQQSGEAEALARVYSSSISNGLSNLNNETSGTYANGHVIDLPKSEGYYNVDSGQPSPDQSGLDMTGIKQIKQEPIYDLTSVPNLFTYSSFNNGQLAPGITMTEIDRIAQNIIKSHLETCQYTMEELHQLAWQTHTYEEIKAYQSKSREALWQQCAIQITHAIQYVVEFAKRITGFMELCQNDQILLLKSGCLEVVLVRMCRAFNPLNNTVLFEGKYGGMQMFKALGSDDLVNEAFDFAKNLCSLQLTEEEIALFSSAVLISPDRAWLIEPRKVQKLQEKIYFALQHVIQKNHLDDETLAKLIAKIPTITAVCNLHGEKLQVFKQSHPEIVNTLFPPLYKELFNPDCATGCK
In assay [5] the test system is GPI induced arthritis in DBA/1 mice. Description: Glucose-6-phosphate isomerase (GPI) induced arthritis model. It counts as in vivo, mouse. The settings on record: 100 mg/Kg orally once daily. On the procedure:
The GPI induced arthritis model is adapted from K. Iwanami et al Arthritis Rheumatism 58, 754-763, 2008 and D. Schubert et al. J Immunology 172, 4503-4509, 2004. Mice (8-9 week old male DBA/1 mice) (Harlan) are randomly assigned into treatment groups based on body weights collected on the day of immunization (day 0). On the day of immunization (day 0), a 1:1 (v:v) mixture of recombinant human GPI (diluted to 4 mg/mL in PBS, Gibco) and complete Freund's adjuvant (CFA, Sigma) is mixed on a high speed homogenizer (Omni) for 40 minutes in a cold room. A final concentration of 2 mg/mL GPI is achieved in the emulsion. Mice are injected at the base of the tail (2 sites of injection, subcutaneously, 100 μL each site) with the GPI emulsion. Test compounds are dosed orally starting on the same day as immunization (day 0). Starting on day 0, each paw is scored for severity of joint swelling based on a 0 to 3 scoring system (See K. Iwanami et al Arthritis Rheumatism 58, 754-763, 2008. The clinical score represents the total score of all 4 paws (maximum score=12). Clinical scores are assessed on days 0, 2, 4, 7, 8, 9, 10, 11, 12, 14, 16, 18, and 21.
The AUC is calculated by a trapezoid method for clinical score over time from the day of immunization (day 0) to day 21. Test p-values were derived from Student's t-test.

Assay [6] has as its target human RAR-related orphan receptor alpha (hRORα) (Homo sapiens (Human), UniProt P35398). Description: RORα receptor-ligand competition binding assay. The settings on record: His-tagged hRORα, [3H]-25-hydroxycholesterol; mean ± standard deviation; read-out: RORa Ki. On the procedure: as §1, §2, §3

Sequence of human RORg ligand binding domain fused to yeast GAL4 DNA binding domain (P51449 269-508): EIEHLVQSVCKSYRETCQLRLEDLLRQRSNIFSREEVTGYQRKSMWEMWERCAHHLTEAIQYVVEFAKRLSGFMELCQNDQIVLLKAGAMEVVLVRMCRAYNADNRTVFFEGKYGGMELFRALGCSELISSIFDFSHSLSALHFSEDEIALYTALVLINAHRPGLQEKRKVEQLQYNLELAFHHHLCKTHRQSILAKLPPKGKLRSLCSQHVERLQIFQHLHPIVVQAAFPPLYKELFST
Sequence of human RAR-related orphan receptor alpha (hRORα) (P35398 whole entry): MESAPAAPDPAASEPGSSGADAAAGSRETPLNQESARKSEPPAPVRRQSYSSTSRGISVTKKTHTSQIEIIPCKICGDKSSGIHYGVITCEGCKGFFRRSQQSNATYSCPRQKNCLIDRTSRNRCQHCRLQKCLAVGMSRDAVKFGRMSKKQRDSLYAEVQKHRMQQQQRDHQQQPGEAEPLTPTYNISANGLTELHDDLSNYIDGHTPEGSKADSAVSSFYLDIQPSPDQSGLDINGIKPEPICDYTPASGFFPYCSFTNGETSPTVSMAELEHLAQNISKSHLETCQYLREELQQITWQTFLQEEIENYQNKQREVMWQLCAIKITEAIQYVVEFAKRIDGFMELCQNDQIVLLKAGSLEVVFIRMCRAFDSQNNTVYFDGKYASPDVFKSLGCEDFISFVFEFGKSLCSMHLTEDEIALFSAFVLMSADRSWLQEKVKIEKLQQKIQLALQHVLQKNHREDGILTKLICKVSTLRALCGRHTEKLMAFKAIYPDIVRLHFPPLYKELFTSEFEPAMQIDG

The term Ki denotes the equilibrium dissociation constant of an inhibitor or competing ligand from its target. Broadly, the EC50 is the concentration that produces a half-maximal response. In the case of `CCS(=O)(=O)c1ccc(CNC(=O)c2cc3c(s2)C2(CCN(Cc4ccc(-c5ncon5)cc4F)CC2)O[C@@H](C)C3)nc1` [Example 25, (5′S)-N-{[5-(Ethylsulfonyl)pyridin-2-yl]methyl}-1-[2-fluoro-4-(1,2,4-oxadiazol-3-yl)benzyl]-5′-methyl-4′,5′-dihydrospiro[piperidine-4,7′-thieno[2,3-c]pyran]-2′-carboxamide], the IC50 in assay [1] turned out to be 16.2 ± 9.7 nM. Further, the Ki in assay [2] stood at 6.04 ± 1.19 nM. Also, the results for the EC50 (in assay [3]; in the assay with PBMC) were 30.8 ± 25.7 nM and above 1 µM, respectively.

As to `CCS(=O)(=O)c1ccc(CNC(=O)c2cc3c(s2)C2(CCN(C(C)c4cnc(C(F)(F)F)nc4C)CC2)O[C@@H](C)C3)cc1` (single isomer, unassigned; isomer 1) [Example 66, (5′S)-N-[4-(Ethylsulfonyl)benzyl]-5′-methyl-1-{1-[4-methyl-2-(trifluoromethyl)pyrim-idin-5-yl]ethyl}-4′,5′-dihydrospiro[piperidine-4,7′-thieno[2,3-c]pyran]-2′-carboxamide isomer 1], the IC50 in assay [1] amounted to 31.4 ± 11.2 nM. The concentration giving a half-maximal response (EC50) was 13.3 ± 4.7 nM in assay [3] and above 1 µM with PBMC.

For the compound `CCS(=O)(=O)c1ccc(CNC(=O)c2cc3c(s2)C2(CCN([C@@H](C)c4ccc(C#N)cc4)CC2)OCC3)cc1` [Example 64, 1-[(1S)-1-(4-Cyanophenyl)ethyl]-N-[4-(ethylsulfonyl)benzyl]-4′,5′-dihydrospiro[piperidine-4,7′-thieno[2,3-c]pyran]-2′-carboxamide], in assay [4], the inhibition constant (Ki) was above 22700 nM. Moreover, the concentration giving a half-maximal response (EC50) with PBMC was above 3 µM.

For `CCS(=O)(=O)c1ccc(CNC(=O)c2cc3c(s2)C2(CCN([C@H](C)c4cnc(C(F)(F)F)nc4)CC2)O[C@@H](C)C3)cc1` [Example 16, (5′S)—N-[4-(Ethylsulfonyl)benzyl]-5′-methyl-1-{(1R)-1-[2-(trifluoromethyl)pyrimidin-5-yl]ethyl}-4′,5′-dihydrospiro[piperidine-4,7′-thieno[2,3-c]pyran]-2′-carboxamide], the Ki in assay [4] is above 12500 nM. Moreover, in the assay on PBMC, the EC50 was above 1 µM.

On to `CCS(=O)(=O)c1ccc(CNC(=O)c2cc3c(s2)C2(CCN(C(C)c4cnc(C(F)(F)F)nc4C)CC2)O[C@@H](C)C3)nc1` (single isomer, unassigned; isomer 2) [Example 69, (5′S)-N-{[5-(Ethylsulfonyl)pyridin-2-yl]methyl}-5′-methyl-1-{1-[4-methyl-2-(trifluoromethyl)pyrim-idin-5-yl]ethyl}-4′,5′-dihydrospiro[piperidine-4,7′-thieno[2,3-c]pyran]-2′-carboxamide isomer 2], for which the IC50 in assay [1] amounted to 15.4 ± 13.4 nM. The EC50 in assay [3] was 30 ± 18.5 nM; in the assay on PBMC, above 1 µM.

With `CCS(=O)(=O)c1ccc(CNC(=O)c2cc3c(s2)C2(CCN(C(C)c4cnc(C(F)(F)F)s4)CC2)O[C@@H](C)C3)nc1` (single isomer, unassigned; isomer 2) [Example 55, (5′S)-N-{[5-(Ethylsulfonyl)pyridin-2-yl]methyl}-5′-methyl-1-{1-[2-(trifluoromethyl)-1,3-thiazol-5-yl]ethyl}-4′,5′-dihydrospiro[piperidine-4,7′-thieno[2,3-c]pyran]-2′-carboxamide isomer 2], the Ki in assay [4] was above 12500 nM. Further, the EC50 in assay [3] is 12.6 ± 8.1 nM; in the assay on PBMC, above 1 µM. Moreover, in assay [5], the “severity of paw swelling and mean clinical scores compared to the vehicle group” value was “reduces severity of paw swelling and maintains lower mean clinical scores”. The “reduction in clinical score AUC” value in assay [5] (compared to the vehicle group) is reported as 94%. Also, the “Clinical Score AUC (mean ± SEM)” value in assay [5] (day 0 to day 21, male DBA/1 mice) is recorded as 7.50 ± 2.08.

Take `CCS(=O)(=O)c1ccc(CNC(=O)c2cc3c(s2)C2(CCN(C(C)c4ccc(C(F)(F)F)nc4)CC2)OC(C)C3)nc1` (single isomer, unassigned; isomer 2) [Example 46, N-{[5-(Ethylsulfonyl)pyridin-2-yl]methyl}-5′-methyl-1-{1-[6-(trifluoromethyl)pyridin-3-yl]ethyl}-4′,5′-dihydrospiro[piperidine-4,7′-thieno[2,3-c]pyran]-2′-carboxamide isomer 2]: the results for the EC50 (in assay [3]; in the assay with PBMC) were 24.5 ± 11.9 nM and above 1 µM, respectively. In addition, the inhibition constant Ki in assay [6] was above 20400 nM.
